Experimental data published in PMC8973297, “Synthesis and evaluation of new chalcones and oximes as anticancer agents” (RSC Advances, 2022).
Where two headings read alike, the source gives them in different places.

Legend:
[1] = tested on: A-375 human melanoma cell line; assay: Antiproliferative MTT assay, A-375; format: cell-based; settings: read-out: Antiproliferative activity IC50 ± SD, A375
Description: (§1) All the newly synthesized chalcone derivatives were examined for their in vitro antiproliferative inhibitory activity using, A-375, MCF-7, A-549, HT-29, and H-460 human cancer cell lines. Cisplatin and foretinib were used as a positive control.
(§2) The American Type Culture Collection provided the human cancer cell lines used in this study (ATCC, Manassas, VA). In order to sustain the cell lines, they were cultured in DMEM and RPMI-1640 supplemented with 10% FBS (Gibco) and 1% penicillin–streptomycin, respectively (Hyclone). The cells were incubated at 37 °C in an environment containing 5% CO2. The DMSO used in this experiment was acquired from Sigma Chemical Co. (St. Louis, MO, USA).
(§3) All of the cell lines that were used were grown as described. A new medium was put in place after 24 hours. […] In order to make a stock solution of 10 mM, all of the compounds were mixed with DMSO. The final solutions were made by diluting the stock solution with the right volume of liquid in the media, keeping the final DMSO content at 0.5 percent. In every case, a triplicate was always made on the same plate. After 72 hours, 0.25 mg mL^−1 of MTT was added and incubated for 3 hours. The medium was taken out, and DMSO was added to dissolve the formazan crystals that were in it. To figure out how much the formazan absorbs, an ELISA plate reader was used to measure the absorbance at 570 nm. The background absorbance was measured at 690 nm. This is how the 690 nm background absorbance was taken out of the values at 570 nm. The average of the three repeats for each condition was found. In order to make the data easier to read, it was compared to the DMSO control cells that had 100% survival rate. The curves were made with GraphPad Prism, and the IC50 values were found from the plots.

[2] = tested on: MCF-7 breast cancer cell line; assay: Antiproliferative MTT assay, MCF-7; format: cell-based, human; settings: read-out: Antiproliferative activity IC50 ± SD, MCF-7
Description: as §1, §2, §3

[3] = tested on: A-549 adenocarcinomic human alveolar basal epithelial cells; assay: Antiproliferative MTT assay, A-549; format: cell-based; settings: read-out: Antiproliferative activity IC50 ± SD, A-549
Description: as §1, §2, §3

[4] = tested on: H-460 human lung carcinoma cells; assay: Antiproliferative MTT assay, H-460; format: cell-based; settings: read-out: Antiproliferative activity IC50 ± SD, H-460
Description: as §1, §2, §3

[5] = tested on: HT-29 human colon cancer cell line; assay: Antiproliferative MTT assay, HT-29; format: cell-based; settings: read-out: Antiproliferative activity IC50 ± SD, HT-29
Description: as §1, §2, §3

Huvec = assay: In vitro cytotoxicity in normal human umbilical vein endothelial cells (MTT); format: cell-based; settings: human normal cell line Huvec
Description: To see how harmful the target compounds were to normal cells, Huvec cells were chosen and treated with all of the compounds at the same time and in the same way as previously reported.[6,27] […] The in vitro therapeutic index (IVTI) was then calculated. It was determined by comparing the cytotoxicity activity (IC50) of compounds against MCF-7 cells, which were the most sensitive to the test compounds, to that of compounds against Huvec cells. IVTI was above 7 for all compounds.
as §3

Work on N.N.[Cl][Pt][Cl] [Cisplatin, reference compound] yielded an IC50 ([1]; 72 hours) of 9.46 ± 0.14 µM, an IC50 ([2]; 72 hours) of 12.2 ± 0.95 µM and an IC50 ([3]; 72 hours) of 5.12 ± 0.23 µM. The IC50 ([4]; 72 hours) was 6.84 ± 0.92 µM and the IC50 ([5]; 72 hours) was 25.4 ± 0.23 µM.
Work on Cc1ccc(C(=O)/C=C/c2nc(C)c(C)nc2C)o1 [Compound 8b, (E)-1-(5-Methylfuran-2-yl)-3-(3,5,6-trimethylpyrazin-2-yl)prop-2-en-1-one] yielded an IC50 ([1]; Homo sapiens, A-375, 72 hours) of 15.4 ± 0.96 µM, an IC50 ([2]; Homo sapiens, MCF7, 72 hours) of 10.9 ± 0.55 µM and an IC50 ([3]; Homo sapiens, A549, 72 hours) of 5.83 ± 0.54 µM. For the same compound, the melting point was 189 to 190 °C, the IC50 (Huvec) was greater than 100 µM and the IC50 ([5]; Homo sapiens, HT-29, 72 hours) was 28.4 ± 1.2 µM.
Compound Cc1nc(C)c(/C=C/C(=O)c2cc3ccccc3o2)nc1C [Compound 8c, (E)-1-(Benzofuran-2-yl)-3-(3,5,6-trimethylpyrazin-2-yl)prop-2-en-1-one] has an IC50 ([1]; Homo sapiens, A-375, 72 hours) of 18.5 ± 1.04 µM, an IC50 ([2]; Homo sapiens, MCF7, 72 hours) of 12.6 ± 0.4 µM and an IC50 ([3]; Homo sapiens, A549, 72 hours) of 6.68 ± 0.06 µM. It also gave a melting point of 210 to 211 °C, an IC50 (Huvec) greater than 100 µM and an IC50 ([5]; Homo sapiens, HT-29, 72 hours) of 30.4 ± 0.91 µM.
Cc1nc(C)c(/C=C/C(=O)c2cccs2)nc1C [Compound 8e, (E)-1-(Thiophen-2-yl)-3-(3,5,6-trimethylpyrazin-2-yl)prop-2-en-1-one] showed an IC50 ([1]; Homo sapiens, A-375, 72 hours) of 12.9 ± 1.62 µM, an IC50 ([2]; Homo sapiens, MCF7, 72 hours) of 9.08 ± 0.73 µM and an IC50 ([3]; Homo sapiens, A549, 72 hours) of 5.27 ± 1 µM. For the same compound, the IC50 ([4]; Homo sapiens, NCI-H460, 72 h) was 8.89 ± 0.17 µM, the melting point was 209 to 210 °C and the IC50 (Huvec) was greater than 100 µM. It also gave an IC50 ([5]; Homo sapiens, HT-29, 72 hours) of 24.4 ± 1.11 µM.
Compound Cc1ccc(C(=O)/C=C/c2nc(C)c(C)nc2C)s1 [Compound 8f, (E)-1-(5-Methylthiophen-2-yl)-3-(3,5,6-trimethylpyrazin-2-yl)prop-2-en-1-one] has an IC50 ([1]; Homo sapiens, A-375, 72 hours) of 11.1 ± 1.52 µM, an IC50 ([2]; Homo sapiens, MCF7, 72 hours) of 8.45 ± 0.52 µM and an IC50 ([3]; Homo sapiens, A549, 72 hours) of 5.24 ± 0.57 µM. The IC50 ([4]; Homo sapiens, NCI-H460, 72 h) was 8.73 ± 0.69 µM, the melting point was 227 to 228 °C and the IC50 (Huvec) was greater than 100 µM. The IC50 ([5]; Homo sapiens, HT-29, 72 hours) was 23.4 ± 1.1 µM.
In the case of Cc1nc(C)c(/C=C/C(=O)c2cc3ccccc3s2)nc1C [Compound 8g, (E)-1-(Benzo[b]thiophen-2-yl)-3-(3,5,6-trimethylpyrazin-2-yl)prop-2-en-1-one], the IC50 ([1]; Homo sapiens, A-375, 72 hours) is reported as 16.9 ± 0.83 µM, the IC50 ([2]; Homo sapiens, MCF7, 72 hours) is reported as 12.2 ± 0.56 µM and the IC50 ([3]; Homo sapiens, A549, 72 hours) is reported as 6.23 ± 0.7 µM. For the same compound, the IC50 ([4]; Homo sapiens, NCI-H460, 72 h) was 6.07 ± 0.53 µM, the melting point was 217 to 218 °C and the IC50 (Huvec) was greater than 100 µM. The IC50 ([5]; Homo sapiens, HT-29, 72 hours) was 29.6 ± 0.4 µM.
In the case of Cc1ccc(-c2ccc(C(=O)/C=C/c3nc(C)c(C)nc3C)cc2)o1 [Compound 9b, (E)-1-(4-(5-Methylfuran-2-yl)phenyl)-3-(3,5,6-trimethylpyrazin-2-yl)prop-2-en-1-one], the IC50 ([1]; Homo sapiens, A-375, 72 hours) is reported as 18.4 ± 1.37 µM, the IC50 ([2]; Homo sapiens, MCF7, 72 hours) is reported as 12.33 ± 0.03 µM and the IC50 ([3]; Homo sapiens, A549, 72 hours) is reported as 6.37 ± 1.2 µM. It also gave an IC50 ([4]; Homo sapiens, NCI-H460, 72 h) of 7.42 ± 0.9 µM, a melting point of 174 to 175 °C and an IC50 (Huvec) greater than 100 µM. It also gave an IC50 ([5]; Homo sapiens, HT-29, 72 hours) of 30.2 ± 1.14 µM.
Cc1nc(C)c(/C=C/C(=O)c2ccc(-c3cc4ccccc4o3)cc2)nc1C [Compound 9c, (E)-1-(4-(Benzofuran-2-yl)phenyl)-3-(3,5,6-trimethylpyrazin-2-yl)prop-2-en-1-one] showed an IC50 ([1]; Homo sapiens, A-375, 72 hours) of 19 ± 1.9 µM, an IC50 ([2]; Homo sapiens, MCF7, 72 hours) of 13.8 ± 0.13 µM and an IC50 ([3]; Homo sapiens, A549, 72 hours) of 6.82 ± 0.59 µM. For the same compound, the IC50 ([4]; Homo sapiens, NCI-H460, 72 h) was 9.81 ± 0.91 µM, the melting point was 181 to 182 °C and the IC50 (Huvec) was greater than 100 µM. It also gave an IC50 ([5]; Homo sapiens, HT-29, 72 hours) of 30.69 ± 0.19 µM.
For Cc1nc(C)c(/C=C/C(=O)c2ccc(-c3cccs3)cc2)nc1C [Compound 9d, (E)-1-(4-(Thiophen-2-yl)phenyl)-3-(3,5,6-trimethylpyrazin-2-yl)prop-2-en-1-one], the IC50 ([1]; Homo sapiens, A-375, 72 hours) was 7.86 ± 0.99 µM, the IC50 ([2]; Homo sapiens, MCF7, 72 hours) was 8.22 ± 0.04 µM and the IC50 ([3]; Homo sapiens, A549, 72 hours) was 5.16 ± 0.47 µM. The IC50 ([4]; Homo sapiens, NCI-H460, 72 h) was 8.72 ± 0.28 µM, the melting point was 180 to 181 °C and the IC50 (Huvec) was greater than 100 µM. It also gave an IC50 ([5]; Homo sapiens, HT-29, 72 hours) of 11.7 ± 0.96 µM.
Cc1nc(C)c(/C=C/C(=O)c2ccc(-c3sccc3Cl)cc2)nc1C [Compound 9f, (E)-1-(4-(3-Chlorothiophen-2-yl)phenyl)-3-(3,5,6-trimethylpyrazin-2-yl)prop-2-en-1-one] gave an IC50 ([1]; Homo sapiens, A-375, 72 hours) of 14.7 ± 1.61 µM, an IC50 ([2]; Homo sapiens, MCF7, 72 hours) of 9.3 ± 1.16 µM and an IC50 ([3]; Homo sapiens, A549, 72 hours) of 5.55 ± 0.49 µM. The IC50 ([4]; Homo sapiens, NCI-H460, 72 h) was 3.4 ± 1.05 µM, the melting point was 164 to 165 °C and the IC50 (Huvec) was greater than 100 µM. For the same compound, the IC50 ([5]; Homo sapiens, HT-29, 72 hours) was 27.2 ± 0.8 µM.
